Source: patent publication US20250230193A1, “CYCLIC COMPOUND HAVING SELECTIVE KRAS INHIBITORY EFFECT ON HRAS AND NRAS” (CHUGAI SEIYAKU KABUSHIKI KAISHA, priority 2022, published 2025)

Experiments:
[1] = target: GDP-bound NRAS wild-type protein (Homo sapiens, UniProt P01111); assay: Binding to NRAS by surface plasmon resonance (SPR), Single Cycle Kinetics; conditions: SPR; KD ratio class
[2] = tested on: human lung cancer strain NCI-H441; assay: cells; conditions: NCI-H441, 96 h, read-out: NCI-H441 IC50 (nM)
[3] = target: GDP-bound HRAS wild-type protein (Homo sapiens, UniProt P01112); assay: Binding to HRAS by surface plasmon resonance (SPR), Single Cycle Kinetics; conditions: SPR; KD ratio class
Chain of GDP-bound HRAS wild-type protein (P01112 whole entry): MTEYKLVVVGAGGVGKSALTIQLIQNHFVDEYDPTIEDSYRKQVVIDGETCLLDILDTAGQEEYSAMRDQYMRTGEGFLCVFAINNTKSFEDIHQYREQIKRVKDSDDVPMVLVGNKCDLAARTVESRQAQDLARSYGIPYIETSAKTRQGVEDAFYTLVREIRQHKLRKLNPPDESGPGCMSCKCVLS

Chain of GDP-bound NRAS wild-type protein (P01111 whole entry): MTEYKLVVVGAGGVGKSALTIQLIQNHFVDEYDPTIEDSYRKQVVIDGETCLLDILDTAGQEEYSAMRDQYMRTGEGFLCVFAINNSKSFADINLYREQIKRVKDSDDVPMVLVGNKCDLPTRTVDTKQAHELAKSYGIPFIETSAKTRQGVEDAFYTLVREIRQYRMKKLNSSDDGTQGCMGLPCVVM

| Compound | NRAS/KRAS (ratio of KD value for GDP-bound NRAS wild-type protein to KD value for KRAS) [1] | IC50 [2] [nM] | HRAS/KRAS (ratio of KD value for GDP-bound HRAS wild-type protein to KD value for KRAS) [3] |
| --- | --- | --- | --- |
| CCO[C@@H]1C[C@H]2C(=O)NC3(CCC3)C(=O)N(C)[C@@H](C3CCCC3)C(=O)N(C)[C@H](C(=O)N3CCC3)CC(=O)N(C)[C@@H](CC)C(=O)N[C@@H]([C@@H](C)CC)C(=O)N(C)CC(=O)N(C)[C@H]3C/C=C\CCN(C3=O)[C@@H](CC3CCC(F)(F)CC3)C(=O)N(C)CC(=O)N[C@@H](CCc3cc(F)c(C(F)(F)F)c(F)c3)C(=O)N2C1 [PP1444] | A (a compound having 10 or more and less than 20 is denoted as A) | 103 | A (a compound having 10 or more and less than 20 is denoted as A) |
| CC[C@H](C)[C@@H]1NC(=O)[C@H](CC2CCCC2)N(C)C(=O)C[C@@H](C(=O)N(C)C)N(C)C(=O)[C@H](C2CCCC2)N(C)C(=O)C2(CCC2)NC(=O)[C@@H]2C[C@@H](C(F)(F)F)CN2C(=O)[C@H](CCc2cc(F)c(C(F)(F)F)c(F)c2)NC(=O)CN(C)C(=O)[C@H](Cc2ccc(F)cc2)N2CC/C=C\C[C@@H](C2=O)N(C)C(=O)CN(C)C1=O [PP1508] | A (a compound having 10 or more and less than 20 is denoted as A) | 28.1 | A (a compound having 10 or more and less than 20 is denoted as A) |
| CC[C@H](C)[C@@H]1NC(=O)[C@H](CC)N(C)C(=O)C[C@@H](C(=O)N2CCOCC2)N(C)C(=O)[C@H](C2CCCC2)N(C)C(=O)C2(CCC2)NC(=O)[C@@H]2CCCN2C(=O)[C@H](CCc2ccc(C(F)(F)F)c(Cl)c2)NC(=O)CN(C)C(=O)[C@H](Cc2ccc(C(F)(F)F)cc2)N2C[C@H](C)CC[C@@H](C2=O)N(C)C(=O)CN(C)C1=O [PP1338] | B (a compound having 3 or more and less than 10 is denoted as B) | 35 | B (a compound having 3 or more and less than 10 is denoted as B) |
| CCO[C@@H]1C[C@H]2C(=O)NC3(CCC3)C(=O)N(C)[C@@H](C3CCCC3)C(=O)N(C)[C@H](C(=O)N(C)C)CC(=O)N(C)[C@@H](CC(C)C)C(=O)N[C@@H]([C@@H](C)CC)C(=O)N(C)CC(=O)N(C)[C@H]3C/C=C\CCN(C3=O)[C@@H](Cc3ccc(F)cc3C)C(=O)N(C)CC(=O)N[C@@H](CCc3cc(F)c(Cl)c(F)c3)C(=O)N2C1 [PP1481] | A (a compound having 10 or more and less than 20 is denoted as A) | 14.8 | B (a compound having 3 or more and less than 10 is denoted as B) |
| CCO[C@@H]1C[C@H]2C(=O)NC3(CCC3)C(=O)N(C)[C@@H](C3CCCC3)C(=O)N(C)[C@H](C)CC(=O)N(C)[C@@H](CC3CC3)C(=O)N[C@@H]([C@@H](C)CC)C(=O)N(C)CC(=O)N(C)[C@H]3C/C=C\CCN(C3=O)[C@@H](Cc3ccc(F)cc3C)C(=O)N(C)CC(=O)N[C@@H](CCc3cc(F)c(C(F)(F)F)c(F)c3)C(=O)N2C1 [PP1489] | B (a compound having 3 or more and less than 10 is denoted as B) | 118 | B (a compound having 3 or more and less than 10 is denoted as B) |
| CCO[C@@H]1C[C@H]2C(=O)NC3(CCC3)C(=O)N(C)[C@@H](C(CC)CC)C(=O)N(C)[C@H](C(=O)N3CCCC3)CC(=O)N(C)[C@@H](C)C(=O)N[C@@H]([C@@H](C)CC)C(=O)N(C)CC(=O)N(C)[C@H]3C/C=C\CCN(C3=O)[C@@H](CC3CCCCC3)C(=O)N(C)CC(=O)N[C@@H](CCc3cc(F)c(C(F)(F)F)c(F)c3)C(=O)N2C1 [PP1434] | A (a compound having 10 or more and less than 20 is denoted as A) | 112 | A (a compound having 10 or more and less than 20 is denoted as A) |
| CCO[C@@H]1C[C@H]2C(=O)NC3(CCC3)C(=O)N(C)[C@@H](C(CC)CC)C(=O)N(C)[C@H](C(=O)N(C)C)CC(=O)N(C)[C@@H](CC3CC3)C(=O)N[C@@H]([C@@H](C)CC)C(=O)N(C)CC(=O)N(C)[C@H]3C/C=C\CCN(C3=O)[C@@H](CC3CCC(F)(F)CC3)C(=O)N(C)CC(=O)N[C@@H](CCc3cc(F)c(C(F)(F)F)c(F)c3)C(=O)N2C1 [PP1429] | AA (a compound having 20 or more is denoted as AA) | 38.7 | A (a compound having 10 or more and less than 20 is denoted as A) |
| CCCOC[C@H]1C(=O)N[C@@H]([C@@H](C)CC)C(=O)N(C)CC(=O)N(C)[C@H]2C/C=C\CCN(C2=O)[C@@H](Cc2ccc(C)cc2)C(=O)N(C)CC(=O)N[C@@H](CCc2cc(F)c(C(F)(F)F)c(F)c2)C(=O)N2C[C@H](OCC)C[C@H]2C(=O)NC2(CCCC2)C(=O)N(C)[C@@H](C2CCCC2)C(=O)N(C)[C@H](C(=O)N2CCCC2)CC(=O)N1C [PP1401] | A (a compound having 10 or more and less than 20 is denoted as A) | 34.4 | A (a compound having 10 or more and less than 20 is denoted as A) |
| CC[C@H](C)[C@@H]1NC(=O)[C@H](CC)N(C)C(=O)C[C@@H](C(=O)N(C)C)N(C)C(=O)[C@H](C2CCCC2)N(C)C(=O)C2(CCCC2)NC(=O)[C@@H]2CCCN2C(=O)[C@H](CCc2cc(F)c(C(F)(F)F)c(F)c2)NC(=O)CN(C)C(=O)[C@H](Cc2ccc(C(F)(F)F)cc2)N2C[C@H](C)[C@H](C)C[C@@H](C2=O)N(C)C(=O)CN(C)C1=O [PP1364] | A (a compound having 10 or more and less than 20 is denoted as A) | 7.1 | B (a compound having 3 or more and less than 10 is denoted as B) |
| CCO[C@@H]1C[C@H]2C(=O)NC3(CCC3)C(=O)N(C)[C@@H](C3CCCC3)C(=O)N(C)[C@H](C(=O)N(C)C)CC(=O)N(C)[C@@H](CC3CCCC3)C(=O)N[C@@H]([C@@H](C)CC)C(=O)N(C)CC(=O)N(C)[C@H]3C/C=C\CCN(C3=O)[C@@H](Cc3ccc(C)cc3)C(=O)N(C)CC(=O)N[C@@H](CCc3ccc(Cl)c(Cl)c3)C(=O)N2C1 [PP1487] | A (a compound having 10 or more and less than 20 is denoted as A) | 46.6 | A (a compound having 10 or more and less than 20 is denoted as A) |
| CCO[C@@H]1C[C@H]2C(=O)NC3(CCC3)C(=O)N(C)[C@@H](C(CC)CC)C(=O)N(C)[C@H](C(=O)N(C)C)CC(=O)N(C)[C@@H](CC3CC3)C(=O)N[C@@H]([C@@H](C)CC)C(=O)N(C)CC(=O)N(C)[C@H]3C/C=C\CCN(C3=O)[C@@H](CC3CCCCC3)C(=O)N(C)CC(=O)N[C@@H](CCc3cc(F)c(C(F)(F)F)c(F)c3)C(=O)N2C1 [PP1428] | AA (a compound having 20 or more is denoted as AA) | 38.8 | A (a compound having 10 or more and less than 20 is denoted as A) |
| CCO[C@@H]1C[C@H]2C(=O)NC3(CCC3)C(=O)N(C)[C@@H](C3CCCC3)C(=O)N(C)[C@H](C(=O)N(C)C)CC(=O)N(C)[C@@H](CC(C)C)C(=O)N[C@@H]([C@@H](C)CC)C(=O)N(C)CC(=O)N(C)[C@H]3C/C=C\CCN(C3=O)[C@@H](Cc3ccc(F)cc3)C(=O)N(C)CC(=O)N[C@@H](CCc3ccc(Cl)c(Cl)c3)C(=O)N2C1 [PP1482] | A (a compound having 10 or more and less than 20 is denoted as A) | 76.4 | B (a compound having 3 or more and less than 10 is denoted as B) |
| CCO[C@@H]1C[C@H]2C(=O)NC3(CCCC3)C(=O)N(C)[C@@H](C3CCCC3)C(=O)N(C)[C@H](C(=O)N(C)C)CC(=O)N(C)[C@@H](CC(C)C)C(=O)N[C@@H]([C@@H](C)CC)C(=O)N(C)CC(=O)N(C)[C@H]3C/C=C\CCN(C3=O)[C@@H](CC3CCC(F)(F)CC3)C(=O)N(C)CC(=O)N[C@@H](CCc3cc(F)c(C(F)(F)F)c(F)c3)C(=O)N2C1 [PP1459] | A (a compound having 10 or more and less than 20 is denoted as A) | 38.6 | A (a compound having 10 or more and less than 20 is denoted as A) |
| CC[C@H](C)[C@@H]1NC(=O)[C@H](CC2CC2)N(C)C(=O)C[C@@H](C(=O)N(C)C)N(C)C(=O)[C@H](C2CCCC2)N(C)C(=O)C2(CCC2)NC(=O)[C@H](CC(F)F)N(C)C(=O)[C@H](CCc2cc(F)c(C(F)(F)F)c(F)c2)NC(=O)CN(C)C(=O)[C@H](Cc2ccc(C(F)(F)F)cc2)N2CC/C=C\C[C@@H](C2=O)N(C)C(=O)CN(C)C1=O [PP1403] | AA (a compound having 20 or more is denoted as AA) | 111 | A (a compound having 10 or more and less than 20 is denoted as A) |
